Source: the kinase profiling compilation of Christmann-Franck et al. (2016)

Experiments:
Assay in all cases: KINOMEscan competition binding
Details in all cases: compound 10.0 µM
[1] = target: TNNI3K (human) (UniProt Q59H18)
[2] = tested on: MET (human), P08581 [Y1235D]
[3] = target: MAPKAPK5 (human) (UniProt Q8IW41)
[4] = target: MARK3 (human) (UniProt P27448)
[5] = target: CAMK2G (human) (UniProt Q13555)
[6] = target: ERBB4 (human) (UniProt Q15303)
[7] = target: AURKC (human) (UniProt Q9UQB9)
[8] = target: TRPM6 (human) (UniProt Q9BX84)
[9] = target: FRK (human) (UniProt P42685)
Sequence of FRK (human) (P42685 whole entry, looked up): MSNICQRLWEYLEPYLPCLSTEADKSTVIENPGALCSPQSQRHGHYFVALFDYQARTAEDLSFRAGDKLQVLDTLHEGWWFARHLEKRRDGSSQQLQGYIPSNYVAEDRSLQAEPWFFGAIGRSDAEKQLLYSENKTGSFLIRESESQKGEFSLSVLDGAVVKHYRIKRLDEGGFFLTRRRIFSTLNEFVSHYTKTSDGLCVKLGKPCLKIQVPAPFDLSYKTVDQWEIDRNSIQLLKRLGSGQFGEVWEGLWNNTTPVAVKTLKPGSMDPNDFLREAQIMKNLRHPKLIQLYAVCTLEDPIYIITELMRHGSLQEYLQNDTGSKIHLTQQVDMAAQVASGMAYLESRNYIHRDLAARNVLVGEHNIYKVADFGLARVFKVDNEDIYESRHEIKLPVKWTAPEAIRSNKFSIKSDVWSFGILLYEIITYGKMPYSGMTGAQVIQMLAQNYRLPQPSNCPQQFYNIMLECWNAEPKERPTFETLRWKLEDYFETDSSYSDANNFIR

[10] = target: TIE1 (human) (UniProt P35590)
[11] = target: RIPK1 (human) (UniProt Q13546)
Sequence of RIPK1 (human) (Q13546 whole entry, looked up): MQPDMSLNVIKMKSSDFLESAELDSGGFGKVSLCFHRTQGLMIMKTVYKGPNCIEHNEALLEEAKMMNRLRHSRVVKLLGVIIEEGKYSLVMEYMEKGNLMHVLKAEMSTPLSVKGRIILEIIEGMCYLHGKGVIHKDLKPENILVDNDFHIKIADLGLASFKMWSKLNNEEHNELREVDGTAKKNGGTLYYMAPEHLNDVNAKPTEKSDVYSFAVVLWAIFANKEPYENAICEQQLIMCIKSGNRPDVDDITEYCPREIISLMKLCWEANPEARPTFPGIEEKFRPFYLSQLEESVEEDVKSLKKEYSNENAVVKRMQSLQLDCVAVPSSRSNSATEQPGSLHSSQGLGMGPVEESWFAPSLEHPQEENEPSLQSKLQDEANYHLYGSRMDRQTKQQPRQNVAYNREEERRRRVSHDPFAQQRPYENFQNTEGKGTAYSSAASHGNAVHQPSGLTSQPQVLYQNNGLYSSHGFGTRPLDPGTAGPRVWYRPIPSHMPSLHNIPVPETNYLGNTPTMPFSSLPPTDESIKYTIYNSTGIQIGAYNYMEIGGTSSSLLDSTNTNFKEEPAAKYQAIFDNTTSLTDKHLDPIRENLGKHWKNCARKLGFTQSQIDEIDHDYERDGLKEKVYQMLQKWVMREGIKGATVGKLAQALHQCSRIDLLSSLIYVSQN

[12] = target: JAK1 JH2 pseudokinase (human) (UniProt P23458)
[13] = target: FGFR1 (human) (UniProt P11362)
[14] = target: MYLK4 (human) (UniProt Q86YV6)
[15] = target: MYLK (human) (UniProt Q15746)
[16] = target: TNIK (human) (UniProt Q9UKE5)
[17] = target: PHKG2 (human) (UniProt P15735)
Sequence of PHKG2 (human) (P15735 whole entry, looked up): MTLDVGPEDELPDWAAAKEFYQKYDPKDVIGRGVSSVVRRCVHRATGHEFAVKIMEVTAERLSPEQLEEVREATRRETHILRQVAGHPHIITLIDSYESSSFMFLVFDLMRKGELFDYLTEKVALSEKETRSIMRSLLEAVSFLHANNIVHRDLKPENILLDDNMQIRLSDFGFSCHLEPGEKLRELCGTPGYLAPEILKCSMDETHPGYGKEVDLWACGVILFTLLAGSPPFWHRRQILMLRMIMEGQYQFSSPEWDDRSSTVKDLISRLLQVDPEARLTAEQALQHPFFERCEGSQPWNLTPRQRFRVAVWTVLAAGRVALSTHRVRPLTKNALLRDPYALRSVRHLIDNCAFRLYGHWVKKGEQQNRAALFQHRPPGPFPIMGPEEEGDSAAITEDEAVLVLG

[18] = target: CDK17 (human) (UniProt Q00537)
Sequence of CDK17 (human) (Q00537 whole entry, looked up): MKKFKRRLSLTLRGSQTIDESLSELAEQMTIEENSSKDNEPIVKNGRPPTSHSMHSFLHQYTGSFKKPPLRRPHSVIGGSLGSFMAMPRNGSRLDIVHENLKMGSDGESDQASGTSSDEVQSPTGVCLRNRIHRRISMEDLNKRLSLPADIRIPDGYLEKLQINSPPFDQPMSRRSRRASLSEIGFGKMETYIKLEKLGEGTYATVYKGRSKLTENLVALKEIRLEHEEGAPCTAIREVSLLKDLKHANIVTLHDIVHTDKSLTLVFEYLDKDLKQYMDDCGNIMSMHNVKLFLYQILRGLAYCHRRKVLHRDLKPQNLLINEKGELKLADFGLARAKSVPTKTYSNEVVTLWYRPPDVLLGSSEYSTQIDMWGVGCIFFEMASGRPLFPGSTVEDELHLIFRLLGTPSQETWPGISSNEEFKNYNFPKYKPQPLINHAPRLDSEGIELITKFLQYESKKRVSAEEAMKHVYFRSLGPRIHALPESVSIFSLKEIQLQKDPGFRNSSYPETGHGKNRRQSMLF

[19] = target: MLTK (human) (UniProt Q9NYL2)
[20] = target: EPHB1 (human) (UniProt P54762)
[21] = target: HCK (human) (UniProt P08631)
[22] = target: SGK3 (human) (UniProt Q96BR1)
[23] = target: RAF1 (human) (UniProt P04049)
[24] = target: SLK (human) (UniProt Q9H2G2)
Sequence of SLK (human) (Q9H2G2 whole entry, looked up): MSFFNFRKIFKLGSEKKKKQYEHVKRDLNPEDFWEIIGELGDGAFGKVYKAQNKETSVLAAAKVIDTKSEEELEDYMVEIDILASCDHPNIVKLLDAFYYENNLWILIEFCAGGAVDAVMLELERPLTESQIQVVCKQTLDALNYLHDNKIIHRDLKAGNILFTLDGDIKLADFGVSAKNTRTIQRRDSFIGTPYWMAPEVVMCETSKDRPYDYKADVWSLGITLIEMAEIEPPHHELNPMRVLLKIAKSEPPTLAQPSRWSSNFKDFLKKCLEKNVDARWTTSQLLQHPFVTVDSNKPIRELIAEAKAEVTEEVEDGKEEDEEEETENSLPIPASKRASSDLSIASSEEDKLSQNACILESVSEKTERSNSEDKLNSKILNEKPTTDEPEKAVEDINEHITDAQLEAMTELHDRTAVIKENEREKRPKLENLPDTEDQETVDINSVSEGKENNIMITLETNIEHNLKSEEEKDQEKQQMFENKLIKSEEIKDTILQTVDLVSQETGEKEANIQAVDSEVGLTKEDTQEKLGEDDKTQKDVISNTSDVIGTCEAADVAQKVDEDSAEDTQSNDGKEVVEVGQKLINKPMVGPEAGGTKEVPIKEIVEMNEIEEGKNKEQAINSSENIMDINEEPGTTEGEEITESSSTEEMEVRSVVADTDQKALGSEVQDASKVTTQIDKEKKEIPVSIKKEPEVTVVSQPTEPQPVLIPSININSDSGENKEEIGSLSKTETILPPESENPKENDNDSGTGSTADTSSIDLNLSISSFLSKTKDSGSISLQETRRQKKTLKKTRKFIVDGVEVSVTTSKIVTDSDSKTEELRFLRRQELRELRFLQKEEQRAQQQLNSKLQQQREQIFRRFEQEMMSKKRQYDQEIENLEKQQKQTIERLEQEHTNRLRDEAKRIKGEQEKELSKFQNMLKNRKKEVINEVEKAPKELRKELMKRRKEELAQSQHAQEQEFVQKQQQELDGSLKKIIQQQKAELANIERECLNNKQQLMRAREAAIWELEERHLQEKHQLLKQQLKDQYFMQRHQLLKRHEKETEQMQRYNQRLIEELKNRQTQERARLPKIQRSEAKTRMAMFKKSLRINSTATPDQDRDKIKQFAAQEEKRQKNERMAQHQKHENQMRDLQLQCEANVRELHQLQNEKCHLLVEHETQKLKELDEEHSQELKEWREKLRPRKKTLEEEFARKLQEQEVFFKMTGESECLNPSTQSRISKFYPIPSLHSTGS

[25] = target: PIK3CD (human) (UniProt O00329)
[26] = target: STK36 (human) (UniProt Q9NRP7)
[27] = target: PRKX (human) (UniProt P51817)
Sequence of PRKX (human) (P51817 whole entry, looked up): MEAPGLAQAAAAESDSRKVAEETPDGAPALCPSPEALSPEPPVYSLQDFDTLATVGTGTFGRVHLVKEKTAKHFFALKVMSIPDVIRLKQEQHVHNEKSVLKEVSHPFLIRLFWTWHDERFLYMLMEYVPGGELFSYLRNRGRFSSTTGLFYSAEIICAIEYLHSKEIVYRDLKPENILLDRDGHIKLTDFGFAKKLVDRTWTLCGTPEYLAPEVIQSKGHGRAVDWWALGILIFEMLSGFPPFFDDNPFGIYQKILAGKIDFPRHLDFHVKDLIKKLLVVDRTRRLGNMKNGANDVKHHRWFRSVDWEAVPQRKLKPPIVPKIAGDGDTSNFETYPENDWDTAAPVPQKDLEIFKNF

[28] = target: MAPK11 (human) (UniProt Q15759)
[29] = target: PAK7 (human) (UniProt Q9P286)
[30] = target: MTOR (human) (UniProt P42345)
[31] = target: ROS1 (human) (UniProt P08922)
[32] = target: MAP3K9 (human) (UniProt P80192)
[33] = target: TAOK1 (human) (UniProt Q7L7X3)
[34] = target: MKNK2 (human) (UniProt Q9HBH9)
[35] = target: TAOK2 (human) (UniProt Q9UL54)
[36] = target: MAP3K11 (human) (UniProt Q16584)
Sequence of MAP3K11 (human) (Q16584 whole entry, looked up): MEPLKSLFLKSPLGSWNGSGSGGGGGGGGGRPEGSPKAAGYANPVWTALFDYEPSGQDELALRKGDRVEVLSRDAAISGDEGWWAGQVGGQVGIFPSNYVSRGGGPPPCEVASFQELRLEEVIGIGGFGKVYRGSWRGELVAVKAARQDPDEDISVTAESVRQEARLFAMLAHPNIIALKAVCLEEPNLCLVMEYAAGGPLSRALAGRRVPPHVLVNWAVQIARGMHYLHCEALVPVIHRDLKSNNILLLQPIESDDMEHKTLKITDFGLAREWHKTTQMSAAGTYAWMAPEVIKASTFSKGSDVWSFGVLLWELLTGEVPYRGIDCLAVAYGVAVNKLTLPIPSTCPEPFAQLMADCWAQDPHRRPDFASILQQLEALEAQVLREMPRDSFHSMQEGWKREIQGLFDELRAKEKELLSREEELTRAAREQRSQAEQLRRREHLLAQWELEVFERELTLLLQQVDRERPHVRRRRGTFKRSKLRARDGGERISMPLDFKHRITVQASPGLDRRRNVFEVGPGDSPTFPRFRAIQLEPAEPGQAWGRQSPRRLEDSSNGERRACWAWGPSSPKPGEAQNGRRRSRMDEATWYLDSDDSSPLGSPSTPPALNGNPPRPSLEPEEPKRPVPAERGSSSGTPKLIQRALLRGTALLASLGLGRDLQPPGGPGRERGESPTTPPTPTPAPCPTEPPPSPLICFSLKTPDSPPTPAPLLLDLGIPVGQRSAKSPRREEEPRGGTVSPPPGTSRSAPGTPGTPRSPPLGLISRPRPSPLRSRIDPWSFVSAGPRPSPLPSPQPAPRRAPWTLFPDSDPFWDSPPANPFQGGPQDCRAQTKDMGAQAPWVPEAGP

[37] = target: NUAK1 (human) (UniProt O60285)
[38] = target: STK3 (human) (UniProt Q13188)
[39] = target: STK35 (human) (UniProt Q8TDR2)
[40] = target: HIPK1 (human) (UniProt Q86Z02)

Sequence of MAPKAPK5 (human) (Q8IW41 whole entry, looked up): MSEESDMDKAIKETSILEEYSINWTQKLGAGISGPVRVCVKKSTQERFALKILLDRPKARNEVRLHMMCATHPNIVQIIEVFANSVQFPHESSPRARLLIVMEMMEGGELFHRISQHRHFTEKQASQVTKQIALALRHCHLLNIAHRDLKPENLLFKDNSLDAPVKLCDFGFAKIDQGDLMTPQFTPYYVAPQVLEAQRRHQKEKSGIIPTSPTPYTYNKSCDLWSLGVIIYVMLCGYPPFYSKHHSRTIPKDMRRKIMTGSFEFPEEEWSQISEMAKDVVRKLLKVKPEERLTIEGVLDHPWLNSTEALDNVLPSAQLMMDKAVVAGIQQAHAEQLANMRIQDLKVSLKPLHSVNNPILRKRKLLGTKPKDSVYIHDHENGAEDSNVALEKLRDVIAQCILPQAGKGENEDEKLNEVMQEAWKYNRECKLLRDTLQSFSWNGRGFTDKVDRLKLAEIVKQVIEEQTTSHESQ

Row | Structure (SMILES) | kinase still bound, per cent of control [1] | kinase still bound, per cent of control [2] | kinase still bound, per cent of control [3] | kinase still bound, per cent of control [4] | kinase still bound, per cent of control [5] | kinase still bound, per cent of control [6] | kinase still bound, per cent of control [7] | kinase still bound, per cent of control [8] | kinase still bound, per cent of control [9] | kinase still bound, per cent of control [10] | kinase still bound, per cent of control [11] | kinase still bound, per cent of control [12] | kinase still bound, per cent of control [13] | kinase still bound, per cent of control [14] | kinase still bound, per cent of control [15] | kinase still bound, per cent of control [16] | kinase still bound, per cent of control [17] | kinase still bound, per cent of control [18] | kinase still bound, per cent of control [19] | kinase still bound, per cent of control [20] | other results
1 | O=c1cc(N2CCOCC2)oc2c(-c3cccc4c3sc3ccccc34)cccc12 | 86% | 59% | 100% | 99% | 86% | 92% | 100% | 100% | 91% | 100% | 100% | 72% | 93% | 100% | 91% | 100% | 99% | 100% | 93% | 100% | kinase still bound, per cent of control [21]: 100%; kinase still bound, per cent of control [22]: 100%; kinase still bound, per cent of control [23]: 97%; kinase still bound, per cent of control [24]: 100%; kinase still bound, per cent of control [25]: 3.3%; kinase still bound, per cent of control [26]: 100%; kinase still bound, per cent of control [27]: 89%; kinase still bound, per cent of control [28]: 90%; kinase still bound, per cent of control [29]: 96%; kinase still bound, per cent of control [30]: 18%; kinase still bound, per cent of control [31]: 90%; kinase still bound, per cent of control [32]: 100%; kinase still bound, per cent of control [33]: 100%; kinase still bound, per cent of control [34]: 87%; kinase still bound, per cent of control [35]: 98%; kinase still bound, per cent of control [36]: 97%; kinase still bound, per cent of control [37]: 100%; kinase still bound, per cent of control [38]: 85%; kinase still bound, per cent of control [39]: 80%; kinase still bound, per cent of control [40]: 93%
2 | CN(C)C/C=C/C(=O)Nc1ccc(C(=O)Nc2cccc(Nc3nccc(-c4cccnc4)n3)c2)cc1 | 100% | 100% | 100% | 100% | 76% | 100% | 5.5% | 100% | 100% | 55% | 34% | 0.6% | 89% | 36% | 64% | 36% | 56% | 92% | 62% | 100% | kinase still bound, per cent of control [21]: 100%; kinase still bound, per cent of control [22]: 65%; kinase still bound, per cent of control [23]: 100%; kinase still bound, per cent of control [24]: 98%; kinase still bound, per cent of control [25]: 91%; kinase still bound, per cent of control [26]: 99%; kinase still bound, per cent of control [27]: 100%; kinase still bound, per cent of control [28]: 88%; kinase still bound, per cent of control [29]: 52%; kinase still bound, per cent of control [30]: 80%; kinase still bound, per cent of control [31]: 76%; kinase still bound, per cent of control [32]: 78%; kinase still bound, per cent of control [33]: 28%; kinase still bound, per cent of control [34]: 7.3%; kinase still bound, per cent of control [35]: 70%; kinase still bound, per cent of control [36]: 100%; kinase still bound, per cent of control [37]: 61%; kinase still bound, per cent of control [38]: 100%; kinase still bound, per cent of control [39]: 80%; kinase still bound, per cent of control [40]: 6%
